Experimental data reported in patent US7192974B2, “Hydroxymethyl substituted dihydroisoxazole derivatives useful as antibiotic agents” (AstraZeneca AB, priority 2003, dated 2007).
≈ marks a conversion by molar mass, not a printed value. Like-named read-outs stand apart in the source and are kept apart here.

Assays:
MAO-A = target: T1, MAO-A (Homo sapiens, UniProt P21397); test: MAO-A in-vitro assay, human liver enzyme expressed in yeast; type: biochemical
T1 construct: made in house; host or cells: yeast
T1 sequence (P21397 1-527): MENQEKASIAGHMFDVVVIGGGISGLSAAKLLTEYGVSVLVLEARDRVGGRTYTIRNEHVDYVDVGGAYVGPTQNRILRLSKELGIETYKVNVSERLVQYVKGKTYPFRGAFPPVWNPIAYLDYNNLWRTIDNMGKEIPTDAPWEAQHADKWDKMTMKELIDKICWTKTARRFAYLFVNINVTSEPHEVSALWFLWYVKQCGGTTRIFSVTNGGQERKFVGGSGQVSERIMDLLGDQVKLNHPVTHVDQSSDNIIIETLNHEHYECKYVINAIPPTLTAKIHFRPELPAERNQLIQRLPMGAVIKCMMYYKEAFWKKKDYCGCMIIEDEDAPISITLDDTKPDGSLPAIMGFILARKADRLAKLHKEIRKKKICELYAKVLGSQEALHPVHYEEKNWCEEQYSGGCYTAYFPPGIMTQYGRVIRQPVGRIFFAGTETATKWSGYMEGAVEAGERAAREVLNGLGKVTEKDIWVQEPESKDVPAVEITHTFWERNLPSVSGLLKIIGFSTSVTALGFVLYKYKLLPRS
Method: The activity of the compounds of the invention against MAO-A was tested using a standard in-vitro assay based on human liver enzyme expressed in yeast as described in Biochem. Biophys. Res. Commun. 1991, 181, 1084–1088.

[1] = tested on: Staphylococcus aureus MRQR; test: MIC by agar-dilution, Staphylococci on agar; type: cell-based; details: MRQR = methicillin resistant and quinolone resistant, inoculum 10^4 CFU/spot, 37° C., 24 hours
Method: (§1) The following results were obtained on a standard in-vitro test system. The activity is described in terms of the minimum inhibitory concentration (MIC) determined by the agar-dilution technique with an inoculum size of 10^4 CFU/spot. Typically, compounds are active in the range 0.01 to 256 μg/ml.
(§2) Staphylococci were tested on agar, using an inoculum of 10^4 CFU/spot and an incubation temperature of 37° C. for 24 hours—standard test conditions for the expression of methicillin resistance.

[2] = tested on: Staphylococcus aureus MSQS; test: MIC by agar-dilution, Staphylococci on agar; type: cell-based; details: MSQS = methicillin sensitive and quinolone sensitive, inoculum 10^4 CFU/spot, 37° C., 24 hours
Method: as §1, §2

Streptococcus pneumoniae = test: MIC, Streptococci on agar with 5% defibrinated horse blood; type: cell-based; details: 5% carbon dioxide, 48 hours
Method: (§3) The following results were obtained on a standard in-vitro test system. The activity is described in terms of the minimum inhibitory concentration (MIC) determined by the agar-dilution technique with an inoculum size of 10^4 CFU/spot. Typically, compounds are active in the range 0.01 to 256 μg/ml. Streptococci and enterococci were tested on agar supplemented with 5% defibrinated horse blood, an inoculum of 10^4 CPU/spot and an incubation temperature of 37° C. in an atmosphere of 5% carbon dioxide for 48 hours—blood is required for the growth of some of the test organisms. Fastidious Gram negative organisms were tested in Mueller-Hinton broth, supplemented with hemin and NAD, grown aerobically for 24 hours at 37° C., and with an innoculum of 5×10^4 CFU/well.

Haemophilus influenzae = test: MIC, fastidious Gram negative organisms in Mueller-Hinton broth; type: cell-based; details: Mueller-Hinton broth with hemin and NAD, 24 hours, 5×10^4 CFU/well
Method: as §3

Moraxella catarrhalis = test: as above; type: cell-based; details: Mueller-Hinton broth with hemin and NAD, 24 hours, 5×10^4 CFU/well
Method: as §3

## CC(=O)NC[C@H]1CN(c2ccc(-c3ccc(C4=NO[C@@H](CO)C4)nc3)c(F)c2)C(=O)O1 [Example 4, N-{[(5S)-3-(3-Fluoro-4-{6-[(5R)-5-(hydroxymethyl)-4,5-dihydroisoxazol-3-yl]pyridin-3-yl}phenyl)-2-oxo-1,3-oxazolidin-5-yl]methyl}acetamide]
MAO-A; read-out: MAO-A Ki
  Ki: 3 µM

## CC(=O)NC[C@H]1CN(c2ccc(-c3ccc(C4=NO[C@H](CO)C4)nc3)c(F)c2)C(=O)O1 [Example 3, N-{[(5S)-3-(3-Fluoro-4-{6-[(5S)-5-(hydroxymethyl)-4,5-dihydroisoxazol-3-yl]pyridin-3-yl}phenyl)-2-oxo-1,3-oxazolidin-5-yl]methyl}acetamide]
MAO-A; read-out: MAO-A Ki
  Ki: 9 µM

## O=C1O[C@@H](Cn2ccnn2)CN1c1ccc(-c2ccc(C3=NO[C@@H](CO)C3)nc2)c(F)c1 [Example 2, (5R)-3-(3-Fluoro-4-{6-[(5R)-5-(hydroxymethyl)-4,5-dihydroisoxazol-3-yl]pyridin-3-yl}phenyl)-5-(1H-1,2,3-triazol-1-ylmethyl)-1,3-oxazolidin-2-one]
MAO-A; read-out: MAO-A Ki
  Ki: 0.7 µM

## O=C1O[C@@H](Cn2ccnn2)CN1c1ccc(-c2ccc(C3=NO[C@H](CO)C3)nc2)c(F)c1 [Example 1, (5R)-3-(3-Fluoro-4-{6-[(5S)-5-(hydroxymethyl)-4,5-dihydroisoxazol-3-yl]pyridin-3-yl}phenyl)-5-(1H-1,2,3-triazol-1-ylmethyl)-1,3-oxazolidin-2-one]
MAO-A; human liver enzyme expressed in yeast, read-out: Ki value (MAO-A)
  Ki: 20 µM
[1]
  MIC: 0.5 µg/mL (≈ 1.14 µM)
[2]
  MIC: 0.25 µg/mL (≈ 0.57 µM)
Streptococcus pneumoniae
  MIC: 0.02 µg/mL (≈ 0.0456 µM)
Haemophilus influenzae
  MIC: 4 µg/mL (≈ 9.12 µM)
Moraxella catarrhalis
  MIC: 0.5 µg/mL (≈ 1.14 µM)
